Assay results reported in PubChem BioAssay (NCI).
Where “and” joins values, the source holds several entries; their conditions need not be identical. Equal entries are not always repeated.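 The compound was tested at five concentrations on cells cultured in 96-well plates, with a 48-hour exposure period. GI50 is the concentration that inhibits growth by half. The concentration for full growth arrest is given as TGI.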

Key:
Test in all cases: DTP human tumour cell line panel, 48 h
UACC-257 melanoma = test system: UACC-257 melanoma
BT-549 breast = test system: BT-549 breast
A498 renal = test system: A498 renal
MCF7 breast = test system: MCF7 breast
OVCAR-3 ovarian = test system: OVCAR-3 ovarian
NCI-H23 lung = test system: NCI-H23 lung
SK-MEL-5 melanoma = test system: SK-MEL-5 melanoma
NCI-H522 lung = test system: NCI-H522 lung
U251 CNS = test system: U251 CNS
M14 melanoma = test system: M14 melanoma

SMILES	GI50 (UACC-257 melanoma)	TGI (UACC-257 melanoma)	GI50 (BT-549 breast)	TGI (BT-549 breast)	GI50 (A498 renal)	TGI (A498 renal)	GI50 (MCF7 breast)	TGI (MCF7 breast)	GI50 (OVCAR-3 ovarian)	TGI (OVCAR-3 ovarian)	GI50 (NCI-H23 lung)	TGI (NCI-H23 lung)	GI50 (SK-MEL-5 melanoma)	TGI (SK-MEL-5 melanoma)	GI50 (NCI-H522 lung)	TGI (NCI-H522 lung)	GI50 (U251 CNS)	TGI (U251 CNS)	GI50 (M14 melanoma)	TGI (M14 melanoma)
CC/C(=N/N=C(N)N)c1ccc(NC(=O)Nc2ccc(/C(CC)=N/N=C(N)N)cc2)cc1	13.8 µM	42 µM	3.83 µM	21.1 µM	36.3 µM	> 100 µM	3.13 µM	> 100 µM	6.19 µM	32 µM	11.5 µM	50.8 µM	2.07 µM	> 100 µM	1.74 µM	7.03 µM	2.64 µM	12.2 µM	10.4 µM	37.4 µM
CC(C)[C@H](C(=O)O[C@@H]1/C=C/C(=O)O[C@@H](C)CCC/C=C/[C@@H]2C[C@H](O)C[C@H]21)N(C)C	15.2 µM	71.1 µM	7.13 µM	35.6 µM	2.08 µM	6.62 µM	6.65 µM	28.1 µM	8.54 µM	37.8 µM	16.8 µM	> 83.6 µM	1.75 µM	3.44 µM	26.5 µM	> 68.8 µM	20.3 µM	> 100 µM	11.1 µM	> 63.8 µM
O=C1C(Br)=CC2(C=C1Br)CCNc1c(O)c3c4c(c12)=NCCC=4C=N3	–	0.25 µM	–	0.507 µM	–	3.56 µM	–	0.0745 µM	–	0.0835 µM	–	0.287 µM	–	0.266 µM	–	0.0542 µM	–	1.07 µM	–	0.212 µM
FC(F)(F)c1ccc(NCc2nc3ccccc3[nH]2)cc1	23.5 µM	67.9 µM	31.1 µM	97.5 µM	12.4 µM	46.2 µM	21.5 µM	53.2 µM	21.9 µM	62.2 µM	22.9 µM	80.2 µM	15.6 µM	30 µM	24.7 µM	95.3 µM	27.5 µM	> 100 µM	24.7 µM	> 100 µM
O=c1c2cc(O)c(O)cc2oc2cc(O)c(C3OC(CO)C(O)C(O)C3O)c(O)c12 (stereo not drawn)	–	> 100 µM	–	> 100 µM	–	> 100 µM	–	> 100 µM	–	> 100 µM	–	> 100 µM	–	> 100 µM	–	> 100 µM	–	> 100 µM	–	> 100 µM
Fc1ccc(-c2c(-c3ccncc3)[nH]c3nccnc23)cc1	> 20 µM	> 25 µM	> 15.2 µM	> 25 µM	4.76 µM	> 23.2 µM	7.39 µM	> 25 µM	10.3 µM	> 25 µM	> 17.4 µM	> 25 µM	11 µM	> 25 µM	> 11.1 µM	> 21.6 µM	12.5 µM	> 25 µM	> 18.7 µM	> 25 µM
Oc1cccc(-c2nc(-c3ccccc3)[nH]c2-c2ccncc2)c1	2.97 µM	14 µM	> 25 µM	> 25 µM	6.07 µM	17.4 µM	12.8 µM	> 25 µM	18.6 µM	> 25 µM	12.4 µM	> 25 µM	3.59 µM	14.7 µM	11.8 µM	> 25 µM	17.1 µM	> 25 µM	1.71 µM	12.6 µM
CCN1C(=O)N(CC)C2C1NN=c1s/c(=C\c3ccc(OC)cc3)c(=O)n12 (stereo not drawn)	> 100 µM	> 100 µM	0.288 µM	> 25.1 µM	0.0222 µM	0.0924 µM	0.0465 µM	> 100 µM	0.114 µM	0.526 µM	0.494 µM	> 100 µM	0.192 µM	1.64 µM	0.105 µM	–	0.244 µM	> 100 µM	0.172 µM	> 100 µM
COc1cc(/C=C/c2ccccn2)cc(OC)c1OC	–	> 10 µM	–	> 10 µM	–	> 10 µM	–	> 10 µM	–	> 10 µM	–	> 10 µM	–	> 10 µM	–	> 10 µM	–	> 10 µM	–	> 10 µM
O=C1NC(=O)C(c2c[nH]c3ccccc23)=C1c1ccccc1	> 25 µM	> 25 µM	> 25 µM	> 25 µM	> 17.6 µM	> 25 µM	> 25 µM	> 25 µM	> 25 µM	> 25 µM	> 25 µM	> 25 µM	> 25 µM	> 25 µM	> 25 µM	> 25 µM	> 25 µM	> 25 µM	> 25 µM	> 25 µM
COc1cc(NC(=O)c2ccccc2Nc2ccnc(C(F)(F)F)c2)cc(OC)c1OC	88.2 µM	> 100 µM	43.5 µM	> 100 µM	26.6 µM	> 100 µM	37.1 µM	> 100 µM	22.4 µM	> 100 µM	44 µM	> 100 µM	25.4 µM	> 100 µM	38.2 µM	> 100 µM	82.7 µM	> 100 µM	73.3 µM	> 100 µM
Cc1cn2c(/C=C3/C(=O)Nc4ccc(Cl)cc43)c(C)nc2s1	12.9 µM	> 100 µM	5.94 µM	97.1 µM	0.1 µM	0.645 µM	1.57 µM	> 100 µM	0.564 µM	5.28 µM	0.0454 µM	0.37 µM	0.125 µM	14.4 µM	1.01 µM	> 100 µM	< 0.0235 µM	28.7 µM	< 0.028 µM	> 45.7 µM
CC12CC(=O)C3C(CCC4=CC(=O)CCC43C)C1CC=C2CC(=O)O (stereo not drawn)	–	> 100 µM	–	> 100 µM	–	> 100 µM	–	> 100 µM	–	> 100 µM	–	> 100 µM	–	> 100 µM	–	> 100 µM	–	> 100 µM	–	> 100 µM
COc1ccc2c(c1)N(CCO)C1=C(C(=O)OC1)C2c1ccc(OC)c(OC)c1 (stereo not drawn)	3.38 µM	> 100 µM	2.98 µM	9.74 µM	1.56 µM	5.93 µM	2.67 µM	> 100 µM	1.92 µM	4.24 µM	3.39 µM	> 100 µM	2.63 µM	15.5 µM	1.48 µM	5.25 µM	2.97 µM	> 100 µM	2.44 µM	> 100 µM
COC(=O)c1ccc2c(C(=Nc3ccc(N(C)C(=O)CN4CCN(C)CC4)cc3)c3ccccc3)c(O)[nH]c2c1	1.83 µM and 1.54 µM	4.48 µM and 3.1 µM	6.6 µM and 11.7 µM	22 µM and 29.7 µM	0.613 µM and 0.604 µM	5.52 µM and 10.1 µM	1.55 µM and 4.48 µM	13.6 µM and > 100 µM	7.08 µM and 19.9 µM	16.1 µM and 47 µM	5.23 µM and 6.98 µM	28.4 µM and > 100 µM	3.94 µM and 2.32 µM	9.86 µM and 6.51 µM	1.5 µM and 1.75 µM	3.67 µM and 5.77 µM	1.44 µM and 1.77 µM	–	1.75 µM and 1.98 µM	3.56 µM and 3.98 µM
N#Cc1ccc(/C=C/C(=O)c2ccccc2)cc1	13.6 µM and 15.6 µM	26.4 µM and 29.5 µM	15.2 µM and 16.7 µM	29.3 µM and 30.5 µM	14.3 µM and 12.3 µM	29.5 µM and 24.9 µM	2.44 µM and 1.71 µM	9.25 µM and 5.38 µM	13.8 µM and 5.71 µM	26.6 µM and 13 µM	10.8 µM and 15.4 µM	24.3 µM and 33.2 µM	14 µM and 12.6 µM	26.9 µM and 25.4 µM	10.4 µM and 14.7 µM	22.4 µM and 31.5 µM	2.95 µM and 3.76 µM	9.52 µM and 11.8 µM	11.3 µM and 13.4 µM	> 50.5 µM and 27.8 µM
CNCCN(C)Cc1cn[nH]c1-c1ccc(OC2CC(OCCC3CCOCC3)C2)cc1 (stereo not drawn)	61.6 µM	> 100 µM	54.2 µM	> 100 µM	> 57.1 µM	> 100 µM	> 81.2 µM	> 100 µM	> 80 µM	> 100 µM	> 91.7 µM	> 100 µM	34 µM	> 100 µM	> 100 µM	> 100 µM	55.2 µM	> 100 µM	> 66.3 µM	> 100 µM
CCc1ccc([O-])c(C=NCCCN(C)CCCN=Cc2cc(C)ccc2[O-])c1.[Co+3].[N-]=[N+]=[N-]	50 µg/mL and > 150 µg/mL	50 µg/mL and > 150 µg/mL	50 µg/mL	50 µg/mL	50 µg/mL and 79.7 µg/mL	50 µg/mL and 127 µg/mL	50 µg/mL and > 150 µg/mL	50 µg/mL and > 150 µg/mL	50 µg/mL and 71.1 µg/mL	50 µg/mL and > 150 µg/mL	50 µg/mL and 33.8 µg/mL	50 µg/mL and 129 µg/mL	50 µg/mL and 139 µg/mL	50 µg/mL and > 150 µg/mL	50 µg/mL and > 150 µg/mL	50 µg/mL and > 150 µg/mL	20.1 µg/mL and 33 µg/mL	50 µg/mL and 123 µg/mL	50 µg/mL	50 µg/mL
Fc1ccc(C2C3CCOc4c(ccc5ccccc45)C3=NN2c2ccccc2)cc1 (stereo not drawn)	43.9 µM	> 100 µM	> 100 µM	> 100 µM	> 100 µM	> 100 µM	> 85.4 µM	> 100 µM	99.6 µM	> 100 µM	> 100 µM	> 100 µM	71.4 µM	> 100 µM	> 100 µM	> 100 µM	56.1 µM	> 100 µM	> 100 µM	> 100 µM
COC(=O)C1(C)CCCC2(C)c3cc(OC)ccc3C(=O)C(Br)C12 (stereo not drawn)	–	> 10 µM	–	> 10 µM	–	> 10 µM	–	> 10 µM	–	> 10 µM	–	> 10 µM	–	> 10 µM	–	5.25 µM	–	> 10 µM	–	> 10 µM
